According to ChEMBL document CHEMBL1133138, “Substituted 2-aminopyridines as inhibitors of nitric oxide synthases” (Bioorg Med Chem Lett, 2000):

Columns and labels:
[1] = target: Nitric oxide synthase, inducible (Homo sapiens, UniProt P35228)
Description: Inhibitory activity against inducible nitric oxide synthase (iNOS)

Nitric oxide synthase 3 = target: T1, Nitric oxide synthase 3 (Homo sapiens, UniProt P29474)
T1 sequence (P29474 whole entry): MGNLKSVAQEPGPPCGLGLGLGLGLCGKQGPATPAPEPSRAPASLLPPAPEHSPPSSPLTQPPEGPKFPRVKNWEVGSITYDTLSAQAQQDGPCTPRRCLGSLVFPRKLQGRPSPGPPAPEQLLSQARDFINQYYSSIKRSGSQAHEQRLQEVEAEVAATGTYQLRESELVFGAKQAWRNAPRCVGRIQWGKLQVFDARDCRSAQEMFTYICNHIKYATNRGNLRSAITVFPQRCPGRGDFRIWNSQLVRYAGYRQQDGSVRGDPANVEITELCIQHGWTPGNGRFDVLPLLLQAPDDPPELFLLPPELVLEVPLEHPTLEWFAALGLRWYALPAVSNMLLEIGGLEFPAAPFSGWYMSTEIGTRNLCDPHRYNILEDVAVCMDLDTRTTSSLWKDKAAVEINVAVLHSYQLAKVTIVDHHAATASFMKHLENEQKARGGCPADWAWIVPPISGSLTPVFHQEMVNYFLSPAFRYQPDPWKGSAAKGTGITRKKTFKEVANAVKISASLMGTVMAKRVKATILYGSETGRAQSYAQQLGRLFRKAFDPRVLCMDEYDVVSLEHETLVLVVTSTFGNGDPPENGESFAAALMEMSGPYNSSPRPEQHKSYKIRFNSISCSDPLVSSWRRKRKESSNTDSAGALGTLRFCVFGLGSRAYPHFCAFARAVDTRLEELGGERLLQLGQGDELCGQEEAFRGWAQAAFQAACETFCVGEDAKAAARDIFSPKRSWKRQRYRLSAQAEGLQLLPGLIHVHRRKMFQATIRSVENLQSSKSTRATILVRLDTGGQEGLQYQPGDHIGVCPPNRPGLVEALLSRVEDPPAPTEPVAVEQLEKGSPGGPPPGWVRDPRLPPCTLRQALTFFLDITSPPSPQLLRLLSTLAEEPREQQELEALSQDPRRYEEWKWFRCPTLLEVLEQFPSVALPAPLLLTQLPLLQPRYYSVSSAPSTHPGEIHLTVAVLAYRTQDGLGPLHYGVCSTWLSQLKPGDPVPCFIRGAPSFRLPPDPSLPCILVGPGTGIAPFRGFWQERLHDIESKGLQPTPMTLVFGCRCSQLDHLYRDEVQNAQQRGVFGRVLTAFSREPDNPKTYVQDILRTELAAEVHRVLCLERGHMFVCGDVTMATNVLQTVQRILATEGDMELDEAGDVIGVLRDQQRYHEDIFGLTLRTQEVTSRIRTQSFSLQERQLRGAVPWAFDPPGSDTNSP
Description: Inhibitory activity against endothelial nitric oxide synthase (eNOS)

Nitric oxide synthase 1 [2] = target: T2, Nitric oxide synthase 1 (Homo sapiens, UniProt P29475)
T2 sequence (P29475 whole entry): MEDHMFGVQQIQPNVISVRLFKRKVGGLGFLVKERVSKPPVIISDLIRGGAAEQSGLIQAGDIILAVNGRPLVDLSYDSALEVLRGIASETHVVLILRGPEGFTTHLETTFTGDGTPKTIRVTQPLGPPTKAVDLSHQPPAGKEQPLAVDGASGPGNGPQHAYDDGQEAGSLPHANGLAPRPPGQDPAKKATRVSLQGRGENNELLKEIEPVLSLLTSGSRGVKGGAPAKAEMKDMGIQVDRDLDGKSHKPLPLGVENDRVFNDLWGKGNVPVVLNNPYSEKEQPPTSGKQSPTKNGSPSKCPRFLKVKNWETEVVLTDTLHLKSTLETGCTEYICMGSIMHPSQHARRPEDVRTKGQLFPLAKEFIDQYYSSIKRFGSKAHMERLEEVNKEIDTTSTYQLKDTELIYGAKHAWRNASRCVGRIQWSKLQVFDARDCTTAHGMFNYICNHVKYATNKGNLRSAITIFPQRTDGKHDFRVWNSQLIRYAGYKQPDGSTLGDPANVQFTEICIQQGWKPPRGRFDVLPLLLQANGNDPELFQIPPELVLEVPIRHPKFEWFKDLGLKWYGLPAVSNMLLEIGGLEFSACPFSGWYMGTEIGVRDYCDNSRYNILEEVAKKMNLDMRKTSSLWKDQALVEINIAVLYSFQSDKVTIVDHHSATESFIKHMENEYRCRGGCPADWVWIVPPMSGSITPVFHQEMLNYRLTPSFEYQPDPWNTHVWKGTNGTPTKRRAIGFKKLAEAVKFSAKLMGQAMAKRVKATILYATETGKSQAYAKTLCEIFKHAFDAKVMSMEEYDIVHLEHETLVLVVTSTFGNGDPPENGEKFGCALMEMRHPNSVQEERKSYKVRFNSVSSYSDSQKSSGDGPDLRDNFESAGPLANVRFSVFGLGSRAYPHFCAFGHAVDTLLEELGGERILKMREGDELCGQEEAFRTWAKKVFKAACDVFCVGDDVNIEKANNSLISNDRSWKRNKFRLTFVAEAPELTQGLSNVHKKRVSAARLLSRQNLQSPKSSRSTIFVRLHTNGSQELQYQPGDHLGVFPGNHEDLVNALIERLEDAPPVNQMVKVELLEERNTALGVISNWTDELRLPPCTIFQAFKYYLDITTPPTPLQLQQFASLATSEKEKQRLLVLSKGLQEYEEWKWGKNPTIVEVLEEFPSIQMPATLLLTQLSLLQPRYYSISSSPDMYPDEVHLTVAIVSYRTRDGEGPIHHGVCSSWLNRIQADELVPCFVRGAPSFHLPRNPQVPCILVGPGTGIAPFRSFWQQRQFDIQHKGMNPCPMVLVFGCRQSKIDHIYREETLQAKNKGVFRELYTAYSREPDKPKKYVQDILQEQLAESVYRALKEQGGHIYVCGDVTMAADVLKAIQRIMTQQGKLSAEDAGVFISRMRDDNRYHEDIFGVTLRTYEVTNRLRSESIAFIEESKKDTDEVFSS
Description: Inhibitory activity against neuronal nitric oxide synthase

Mus musculus = experiment: Compound was evaluated for LPS induced nitric oxide increase in mouse plasma after peroral administration of the compound; format: functional; details: po
Rattus norvegicus [3] = experiment: Dose required to increase mean aterial blood pressure (MAP) by 40 mm versus control after intravenous administration in rats; format: functional
Nitric oxide synthase 1 [4] = target: T2, Nitric oxide synthase 1; experiment: Inhibitory activity against Neuronal nitric oxide synthase; details: concentration not given here
Rattus norvegicus [5] = experiment: Dose required to increase mean aterial blood pressure (MAP) by 40 mm versus control after intravenous administration in rat; format: functional
[6] = target: T3, Nitric oxide synthase 3 (Homo sapiens) (UniProt P29474); experiment: Inhibitory activity against Endothelial nitric oxide synthase; details: concentration not given here
T3 sequence (whole entry): T1 sequence (P29474 whole entry)

Chain of Nitric oxide synthase, inducible (P35228 whole entry): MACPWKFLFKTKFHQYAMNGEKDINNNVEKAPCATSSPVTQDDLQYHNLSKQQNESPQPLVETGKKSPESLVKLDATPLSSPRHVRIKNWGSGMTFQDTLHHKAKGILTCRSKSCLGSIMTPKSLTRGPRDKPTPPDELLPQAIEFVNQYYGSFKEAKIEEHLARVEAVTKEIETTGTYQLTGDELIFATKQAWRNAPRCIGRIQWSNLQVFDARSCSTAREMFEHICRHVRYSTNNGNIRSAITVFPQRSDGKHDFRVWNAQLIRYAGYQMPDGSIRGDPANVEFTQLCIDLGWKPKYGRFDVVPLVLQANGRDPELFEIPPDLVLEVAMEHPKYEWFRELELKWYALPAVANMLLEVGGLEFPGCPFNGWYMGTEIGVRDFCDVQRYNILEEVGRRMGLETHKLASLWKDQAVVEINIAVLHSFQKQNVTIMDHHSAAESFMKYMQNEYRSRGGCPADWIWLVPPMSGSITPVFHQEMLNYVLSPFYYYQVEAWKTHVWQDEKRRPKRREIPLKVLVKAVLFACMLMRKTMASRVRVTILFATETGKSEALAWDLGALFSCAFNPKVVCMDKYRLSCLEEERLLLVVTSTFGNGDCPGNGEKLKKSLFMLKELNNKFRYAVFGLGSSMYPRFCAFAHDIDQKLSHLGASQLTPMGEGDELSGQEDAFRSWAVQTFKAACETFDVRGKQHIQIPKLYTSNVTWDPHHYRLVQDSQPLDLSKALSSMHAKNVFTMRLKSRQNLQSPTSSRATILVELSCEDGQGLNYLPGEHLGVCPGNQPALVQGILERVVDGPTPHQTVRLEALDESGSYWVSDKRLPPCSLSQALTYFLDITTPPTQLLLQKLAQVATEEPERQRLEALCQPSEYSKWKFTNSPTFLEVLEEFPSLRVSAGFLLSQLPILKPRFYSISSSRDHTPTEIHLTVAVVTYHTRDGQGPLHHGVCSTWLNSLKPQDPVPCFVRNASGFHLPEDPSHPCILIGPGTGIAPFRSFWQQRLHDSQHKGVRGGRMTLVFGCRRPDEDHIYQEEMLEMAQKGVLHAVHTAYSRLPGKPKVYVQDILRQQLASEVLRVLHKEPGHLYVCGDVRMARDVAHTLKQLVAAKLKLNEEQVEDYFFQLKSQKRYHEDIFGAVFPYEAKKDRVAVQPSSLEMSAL

Cc1ccc(N)nc1
IC50 [1]: 600 nM

Cc1ccnc(N)c1C
IC50 (Nitric oxide synthase 3): 150 nM

Cc1cnc(N)cc1C
IC50 (Nitric oxide synthase 1 [2]): 340 nM | IC50 [1]: 810 nM | IC50 (Nitric oxide synthase 3): 600 nM

Nc1cc2c(cn1)CCCC2
IC50 (Nitric oxide synthase 1 [2]): 10600 nM | IC50 [1]: 4100 nM | IC50 (Nitric oxide synthase 3): 16600 nM

Cc1ccnc(N)c1
ED50 (Mus musculus): 25 mg/kg | HD40 (Rattus norvegicus [3]): 0.11 mg/kg

Cc1cc(N)nc(CC(C)C)c1
IC50 (Nitric oxide synthase 1 [2]): 100 nM | IC50 [1]: 28 nM | IC50 (Nitric oxide synthase 3): 150 nM

Cc1cc(N)nc(C(C)C)c1
IC50 (Nitric oxide synthase 1 [2]): 1200 nM | IC50 [1]: 110 nM | IC50 (Nitric oxide synthase 3): 200 nM

Cc1ccnc(N)c1N
IC50 [1]: 59 nM

Cc1cnc(N)c(C)c1
IC50 (Nitric oxide synthase 1 [2]): 2000 nM | IC50 [1]: 14600 nM | IC50 (Nitric oxide synthase 3): 3600 nM

Cc1ccc(N)nc1C
IC50 (Nitric oxide synthase 1 [2]): 2200 nM | IC50 [1]: 7200 nM | IC50 (Nitric oxide synthase 3): 2800 nM

CCc1c(C)ccnc1N
IC50 [1]: 2700 nM | IC50 (Nitric oxide synthase 3): 3300 nM

N=C(N)NN [PIMAGEDINE]
IC50 (Nitric oxide synthase 1 [2]): 118000 nM | IC50 [1]: 101000 nM | IC50 (Nitric oxide synthase 3): 500000 nM

Nc1cc(Cl)ccn1
IC50 [1]: > 50000 nM

Nc1cc2ccccc2cn1 [ISOQUINOLIN-3-AMINE]
IC50 [1]: > 50000 nM

CCCc1c(C)ccnc1N
IC50 [1]: 34500 nM

CCc1cc(C)cc(N)n1
IC50 [1]: 330 nM | inhibition (Nitric oxide synthase 1 [4]): 42% | IC50 (Nitric oxide synthase 3): 49 nM

Cc1cccnc1N
IC50 (Nitric oxide synthase 1 [2]): 1300 nM | IC50 [1]: 940 nM

Nc1ccccn1 [2-AMINOPYRIDINE]
IC50 [1]: 1900 nM | IC50 (Nitric oxide synthase 3): 2800 nM

Nc1nccc2c1CCCC2
IC50 (Nitric oxide synthase 1 [2]): 11000 nM | IC50 [1]: 29000 nM | IC50 (Nitric oxide synthase 3): 24000 nM

Cc1cc(N)nc2c1CCCC2
IC50 (Nitric oxide synthase 1 [2]): 2400 nM | IC50 [1]: 4000 nM | IC50 (Nitric oxide synthase 3): 19800 nM

Cc1cc(C)nc(N)c1
IC50 [1]: 110 nM | IC50 (Nitric oxide synthase 3): 45 nM

CCCc1ccnc(N)c1
IC50 [1]: > 50000 nM

Cc1cc(N)nc(CCCc2ccccc2)c1
IC50 (Nitric oxide synthase 1 [2]): 3300 nM | IC50 [1]: 12700 nM | IC50 (Nitric oxide synthase 3): 17200 nM

CC1CCN=C(N)C1 (stereo not drawn)
HD50 (Rattus norvegicus [5]): 1.8 mg/kg | ED50 (Mus musculus): 0.15 mg/kg | IC50 [1]: 16 nM

CCCCc1cc(C)cc(N)n1
IC50 [1]: 46 nM | inhibition [6]: 40% | inhibition (Nitric oxide synthase 1 [4]): 59%

Cc1cc(N)nc(CCC(C)C)c1
IC50 (Nitric oxide synthase 1 [2]): 510 nM | IC50 [1]: 76 nM | IC50 (Nitric oxide synthase 3): 1900 nM

CCc1cnc(N)cc1C
IC50 (Nitric oxide synthase 1 [2]): 610 nM | IC50 [1]: 1300 nM | IC50 (Nitric oxide synthase 3): 3400 nM

Nc1ccc2c(n1)CCC2
IC50 (Nitric oxide synthase 1 [2]): > 50000 nM | IC50 [1]: > 50000 nM | IC50 (Nitric oxide synthase 3): > 50000 nM

CC(=N)NCCCC[C@H](N)C(=O)O [L-NIL]
IC50 (Nitric oxide synthase 1 [2]): 18400 nM | IC50 [1]: 1400 nM | IC50 (Nitric oxide synthase 3): 7900 nM
